Data reported in US7250442B2, “Dihydroindol-2-one derivatives as steroid hormone nuclear receptor modulators” (Eli Lilly and Company, priority 2003, dated 2007).

Biological target: T1, glucocorticoid receptor (Homo sapiens, UniProt P04150)
T1 construct: host or cells: A549 human lung epithelial cells (sonicated cell extract)
T1 sequence (P04150 1-777): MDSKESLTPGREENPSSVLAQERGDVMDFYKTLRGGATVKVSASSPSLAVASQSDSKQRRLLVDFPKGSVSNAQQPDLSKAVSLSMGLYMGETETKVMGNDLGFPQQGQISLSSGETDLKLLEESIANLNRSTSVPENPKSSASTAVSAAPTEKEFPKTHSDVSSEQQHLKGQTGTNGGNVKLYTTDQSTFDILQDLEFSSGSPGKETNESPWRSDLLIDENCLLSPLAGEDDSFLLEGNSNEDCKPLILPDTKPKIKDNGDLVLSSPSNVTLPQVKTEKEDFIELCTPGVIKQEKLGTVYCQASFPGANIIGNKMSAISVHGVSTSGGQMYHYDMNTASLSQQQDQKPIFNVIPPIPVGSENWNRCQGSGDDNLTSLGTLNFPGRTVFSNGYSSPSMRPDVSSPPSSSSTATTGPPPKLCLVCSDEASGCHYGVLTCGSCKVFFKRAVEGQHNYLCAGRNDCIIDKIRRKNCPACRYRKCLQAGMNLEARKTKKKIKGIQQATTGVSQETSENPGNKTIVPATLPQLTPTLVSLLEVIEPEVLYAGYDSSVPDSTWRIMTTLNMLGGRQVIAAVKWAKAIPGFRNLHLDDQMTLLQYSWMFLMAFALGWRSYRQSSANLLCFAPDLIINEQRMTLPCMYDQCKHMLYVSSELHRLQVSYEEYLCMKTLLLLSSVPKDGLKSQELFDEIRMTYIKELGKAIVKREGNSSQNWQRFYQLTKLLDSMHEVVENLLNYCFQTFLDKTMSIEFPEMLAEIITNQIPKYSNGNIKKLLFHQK
Assay: Glucocorticoid Receptor Binding Assay ([3H]-dexamethasone displacement, A549 cell extract)
Details: A549 human lung epithelial cell extract, 1.86 nM [3H]-dexamethasone; read-out: GR Ki
Protocol: Glucocorticoid Receptor Binding Assay:
A549 human lung epithelial cells (ATCC) are grown at a scale where gram quantity cell pellets are obtained. Harvested cell pellets are washed twice in cold phosphate buffered saline, centrifuged, and resuspended in cold assay binding buffer. The assay binding buffer consists of 10% glycerol, 50 mM Tris-HCl (pH7.2), 75 mM sodium chloride, 1.5 mM magnesium chloride, 1.5 mM EDTA, and 10 mM sodium molybdate. Cell suspensions were lysed via sonication, centrifuged, and the “extract” supernatant is snap frozen and stored at −80C. until needed.
GR binding assays are performed in a final volume of 140 ul containing 50-200 ug of A549 cell extract and 1.86 nM [^3H]-dexamethasone (Amersham) plus varying concentrations of test compound or vehicle. Briefly, assays are prepared at RT in 96-well Fisher 3356 plates, each well containing 100 ul of A549 cell extract, 20 ul of [^3H]-dexamethasone, and 20 ul of test compound/vehicle. Incubations are carried out at 4 degrees celsius for 16 hours. After incubation, 70 ul of 3× dextran-coated charcoal solution is added to each reaction, mixed, and incubated for 8 minutes at RT. 3×-dextran-coated charcoal solution consists of 250 ml assay binding buffer, 3.75 g Norit A charcoal (Sigma), and 1.25 g dextran T-70 (Amersham). Charcoal/unbound radioligand complexes are removed by centrifugation of the plate and 140 ul of supernatant from each well is transferred to another 96 well Optiplate (Packard Instruments). 200 ul of Microscint-20 scinillant (Packard Instruments) is added to each well and amount of receptor bound radioligand is determined using Packard Instruments TopCount instrument.
IC50 values, defined as the concentration of test compound required to decrease [^3H]-dexamethasone binding by 50%, are then determined. Ki values for each respective test compound can then be calculated by application of the Cheng-Prusoff equation as described in Cheng et al., Relationship Between The Inhibition Constant (Ki) and The Concentration of Inhibitor Which Causes 50% Inhibition (IC50) of an Enzymatic Reaction, Biochem. Pharmacol., 22: 3099-31088; (1973).

Ki	SMILES
≤ 500 nM	COc1ccc(CN2C(=O)C(c3cc(C)c(O)c(C)c3)(c3cc(C)c(O)c(C)c3)c3ccccc32)cc1 [Example 1, 3,3-Bis-(4-hydroxy-3,5-dimethyl-phenyl)-1-(4-methoxy-benzyl)-1,3-dihydro-indol-2-one]
≤ 500 nM	COC(=O)c1ccc(CN2C(=O)C(c3cc(C)c(O)c(C)c3)(c3cc(C)c(O)c(C)c3)c3ccccc32)cc1 [Example 3, 4-[3,3-Bis-(4-hydroxy-3,5-dimethyl-phenyl)-2-oxo-2,3-dihydro-indol-1-ylmethyl]-benzoic acid methyl ester]
≤ 500 nM	Cc1cc(C2(c3cc(C)c(O)c(C)c3)C(=O)N(C)c3ccccc32)cc(C)c1O [Example 4, 3,3-Bis-(4-hydroxy-3,5-dimethyl-phenyl)-1-methyl-1,3-dihydro-indol-2-one]
≤ 500 nM	CCCN1C(=O)C(c2cc(C)c(O)c(C)c2)(c2cc(C)c(O)c(C)c2)c2ccccc21 [Example 5, 3,3-Bis-(4-hydroxy-3,5-dimethyl-phenyl)-1-propyl-1,3-dihydro-indol-2-one]
≤ 500 nM	Cc1cc(C2(c3cc(C)c(O)c(C)c3)C(=O)N(CC3CCCCC3)c3ccccc32)cc(C)c1O [Example 6, 1-Cyclohexylmethyl-3,3-bis-(4-hydroxy-3,5-dimethyl-phenyl)-1,3-dihydro-indol-2-one]
≤ 500 nM	Cc1cc(C2(c3cc(C)c(O)c(C)c3)C(=O)N(Cc3cccc(OC(F)(F)F)c3)c3ccccc32)cc(C)c1O [Example 8, 3,3-Bis-(4-hydroxy-3,5-dimethyl-phenyl)-1-(3-trifluoromethoxy-benzyl)-1,3-dihydro-indol-2-one]
≤ 500 nM	Cc1cc(C2(c3cc(C)c(O)c(C)c3)C(=O)N(Cc3c(C)noc3C)c3ccccc32)cc(C)c1O [Example 9, 1-(3,5-Dimethyl-isoxazol-4-ylmethyl)-3,3-bis-(4-hydroxy-3,5-dimethyl-phenyl)-1,3-dihydro-indol-2-one]
≤ 500 nM	Cc1cc(C2(c3cc(C)c(O)c(C)c3)C(=O)N(Cc3ccccc3Cl)c3ccccc32)cc(C)c1O [Example 11, 1-(2-Chloro-benzyl)-3,3-bis-(4-hydroxy-3,5-dimethyl-phenyl)-1,3-dihydro-indol-2-one]
≤ 500 nM	Cc1cc(C2(c3ccc(O)c(C)c3)C(=O)N(Cc3ccccc3)c3ccccc32)ccc1O [Example 12, 1-Benzyl-3,3-bis-(4-hydroxy-3-methyl-phenyl)-1,3-dihydro-indol-2-one]
≤ 500 nM	O=C1N(Cc2ccccc2)c2ccccc2C1(c1cc(Cl)c(O)c(Cl)c1)c1cc(Cl)c(O)c(Cl)c1 [Example 14, 1-Benzyl-3,3-bis-(3,5-dichloro-4-hydroxy-phenyl)-1,3-dihydro-indol-2-one]
≤ 1000 nM	Cc1cc(C2(c3cc(C)c(O)c(C)c3)C(=O)N(Cc3ccccc3)c3ccc(Br)cc32)cc(C)c1O [Example 15, 1-Benzyl-5-bromo-3,3-bis-(4-hydroxy-3,5-dimethyl-phenyl)-1,3-dihydro-indol-2-one]
≤ 500 nM	Cc1ccc2c(c1)C(c1cc(C)c(O)c(C)c1)(c1cc(C)c(O)c(C)c1)C(=O)N2Cc1ccccc1 [Example 17, 1-Benzyl-3,3-bis-(4-hydroxy-3,5-dimethyl-phenyl)-5-methyl-1,3-dihydro-indol-2-one]
≤ 1000 nM	Cc1cc(C2(c3cc(C)c(O)c(C)c3)C(=O)N(Cc3ccccc3Cl)c3ccc(Br)cc32)cc(C)c1O [Example 19, 5-Bromo-1-(2-chloro-benzyl)-3,3-bis-(4-hydroxy-3,5-dimethyl-phenyl)-1,3-dihydro-indol-2-one]
≤ 500 nM	Cc1ccccc1CN1C(=O)C(c2cc(C)c(O)c(C)c2)(c2cc(C)c(O)c(C)c2)c2cc(Br)ccc21 [Example 20, 5-Bromo-3,3-bis-(4-hydroxy-3,5-dimethyl-phenyl)-1-(2-methyl-benzyl)-1,3-dihydro-indol-2-one]
≤ 500 nM	Cc1ccc2c(c1)C(c1cc(C)c(O)c(C)c1)(c1cc(C)c(O)c(C)c1)C(=O)N2Cc1ccccc1C [Example 21, 3,3-Bis-(4-hydroxy-3,5-dimethyl-phenyl)-5-methyl-1-(2-methyl-benzyl)-1,3-dihydro-indol-2-one]
≤ 500 nM	Cc1ccc2c(c1)C(c1cc(C)c(O)c(C)c1)(c1cc(C)c(O)c(C)c1)C(=O)N2Cc1ccccc1Cl [Example 22, 1-(2-Chloro-benzyl)-3,3-bis-(4-hydroxy-3,5-dimethyl-phenyl)-5-methyl-1,3-dihydro-indol-2-one]
≤ 500 nM	Cc1ccc2c(c1)C(c1cc(C)c(O)c(C)c1)(c1cc(C)c(O)c(C)c1)C(=O)N2Cc1ccccc1C#N [Example 23, 2-[3,3-Bis-(4-hydroxy-3,5-dimethyl-phenyl)-5-methyl-2-oxo-2,3-dihydro-indol-1-ylmethyl]-benzonitrile]
≤ 1000 nM	Cc1cc(C2(c3cc(C)c(O)c(C)c3)C(=O)N(Cc3ccccc3Cl)c3c(C)cccc32)cc(C)c1O [Example 24, 1-(2-Chloro-benzyl)-3,3-bis-(4-hydroxy-3,5-dimethyl-phenyl)-7-methyl-1,3-dihydro-indol-2-one]
≤ 1000 nM	CCc1cccc2c1N(Cc1ccccc1Cl)C(=O)C2(c1cc(C)c(O)c(C)c1)c1cc(C)c(O)c(C)c1 [Example 25, 1-(2-Chloro-benzyl)-7-ethyl-3,3-bis-(4-hydroxy-3,5-dimethyl-phenyl)-1,3-dihydro-indol-2-one]
≤ 500 nM	Cc1cc(C2(c3cc(C)c(O)c(C)c3)C(=O)N(Cc3ccccc3Cl)c3cccc(Cl)c32)cc(C)c1O [Example 26, 4-Chloro-1-(2-chloro-benzyl)-3,3-bis-(4-hydroxy-3,5-dimethyl-phenyl)-1,3-dihydro-indol-2-one]
≤ 500 nM	Cc1cc(C2(c3cc(C)c(O)c(C)c3)C(=O)N(Cc3ccccc3Cl)c3ccccc32)cc(C)c1N (stereo not drawn) [Example 35, 3-(4-Amino-3,5-dimethyl-phenyl)-1-(2-chloro-benzyl)-3-(4-hydroxy-3,5-dimethyl-phenyl)-1,3-dihydro-indol-2-one]
≤ 500 nM	Cc1cc(C2(c3ccc(O)cc3)C(=O)N(Cc3ccccc3Cl)c3ccccc32)cc(C)c1O (stereo not drawn) [Example 36, 1-(2-Chloro-benzyl)-3-(4-hydroxy-3,5-dimethyl-phenyl)-3-(4-hydroxy-phenyl)-1,3-dihydro-indol-2-one]
≤ 500 nM	Cc1cc(C2(c3cc(C)c(O)c(C)c3)C(=O)N(Cc3ccc(F)cc3F)c3ccccc32)cc(C)c1O [Example 43, 1-(2,4-Difluoro-benzyl)-3,3-bis-(4-hydroxy-3,5-dimethyl-phenyl)-1,3-dihydro-indol-2-one]
≤ 500 nM	Cc1cc(C2(c3cc(C)c(O)c(C)c3)C(=O)N(Cc3ccccc3F)c3ccccc32)cc(C)c1O [Example 50, 1-(2-Fluoro-benzyl)-3,3-bis-(4-hydroxy-3,5-dimethyl-phenyl)-1,3-dihydro-indol-2-one]
≤ 1000 nM	Cc1cc(C2(c3cc(C)c(O)c(C)c3)C(=O)N(Cc3ccccc3C(F)(F)F)c3ccccc32)cc(C)c1O [Example 53, 3,3-Bis-(4-hydroxy-3,5-dimethyl-phenyl)-1-(2-trifluoromethyl-benzyl)-1,3-dihydro-indol-2-one]
≤ 1000 nM	Cc1cc(C2(c3cc(C)c(O)c(C)c3)C(=O)N(Cc3ccccc3-c3ccccc3)c3ccccc32)cc(C)c1O [Example 54, 1-Biphenyl-2-ylmethyl-3,3-bis-(4-hydroxy-3,5-dimethyl-phenyl)-1,3-dihydro-indol-2-one]
≤ 500 nM	COc1cccc(CN2C(=O)C(c3cc(C)c(O)c(C)c3)(c3cc(C)c(O)c(C)c3)c3ccccc32)c1 [Example 56, 3,3-Bis-(4-hydroxy-3,5-dimethyl-phenyl)-1-(3-methoxy-benzyl)-1,3-dihydro-indol-2-one]
